A value given as a limit tells only on which side of the number the result lay.

For one test, the target named is T1, VIM-2 (Escherichia coli, UniProt Q5U7L7).
T1 construct: made in house; host or cells: E. coli BL21(DE3)
The test is described as follows: β-lactamase enzyme inhibition, VIM-2. Type of test: biochemical. Particulars: substrate Nitrocefin 100 μM, 486 nm; read-out: Class B VIM-2 IC50. The procedure, abridged:
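Purified VIM-2 (Q sepharose, 50 mM Hepes pH 7.5, >90% purity) preincubated with inhibitor 15 min at 37° C, then nitrocefin added at 100 μM final. Hydrolysis followed at 486 nm for 10 min; IC50 from initial rates versus inhibitor-free control wells.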

For another test, the target named is T2, OXA-1 (Escherichia coli, UniProt P13661).
T2 construct: made in house; host or cells: E. coli BL21(DE3)
The test is described as follows: β-lactamase enzyme inhibition, OXA-1. As to conditions: substrate Nitrocefin 100 μM, 486 nm; read-out: Class D OXA-1 IC50. In kind it is biochemical. The gist of the method:
(§1)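 Native untagged β-lactamases expressed in E. coli BL21(DE3) and purified, then pre-incubated with inhibitor 15 min at 37 °C. Hydrolysis was followed by absorbance: 100 μM nitrocefin at 486 nm for p99 AmpC and OXA-1; imipenem at 300 nm for KPC-2; cefotaxime at 260 nm for SHV-5. IC50 from initial-rate inhibition versus uninhibited controls.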

A further test concerns the target T3, KPC-2 (Klebsiella pneumoniae, UniProt Q9F663).
T3 construct: made in house; host or cells: E. coli BL21(DE3)
The test is described as follows: β-lactamase enzyme inhibition, KPC-2. Particulars: substrate imipenem, 300 nm; read-out: Class A KPC-2 IC50. Type of test: biochemical. The procedure, abridged: as §1

The target in the next test is T4, SHV-5 (Klebsiella pneumoniae, UniProt P0A3M1).
T4 construct: made in house; host or cells: E. coli BL21(DE3)
In words: β-lactamase enzyme inhibition, SHV-5. Type of test: biochemical. The procedure, abridged:
as §1

The target of a further test is T5, p99 AmpC (Enterobacter cloacae, UniProt P05364).
T5 construct: made in house; host or cells: E. coli BL21(DE3)
The test is described as follows: β-lactamase enzyme inhibition, p99 AmpC. In kind it is biochemical. The gist of the method: as §1

Another test deals with P. aerug. Ps296 VIM-2. In words: broth microdilution MIC, P. aeruginosa VIM-2. Type of test: cell-based. Particulars: Pseudomonas aeruginosa; partner antibiotic alone, P. aeruginosa expressing VIM-2. The source says:
To determine the ability of test compounds to potentiate the inhibition of the growth of bacterial strains that produce beta-lactamase enzymes, classic cell based broth microdilution MIC assays were employed. Six bacteria strains producing beta-lactamase enzymes were used: E. coli expressing the Class A Extended Spectrum Beta-Lactamase (ESBL) CTX-M-15, E. cloacae expressing the Class C P99, K. pneumoniae expressing the Class A carbapenemase KPC-3, P. aeruginosa expressing the Class B carbapenemase VIM-2, K. pneumoniae expressing the class A carbapenemase KPC-2 and the class B carbapenemase VIM-4, and S. aureus producing the Class A penicillinase PC-1. The assay was conducted in Cation Adjusted Mueller Hinton Broth (CAMHB, BD #212322, BD Diagnostic Systems, Sparks, Md.). Bacteria strains were grown for 3-5 hours in CAMBH broth. Test compounds were added to a microtiter plate in 2-fold serial dilutions in CAMHB in a final concentration range of 32 μg/mL to 0.25 μg/ml. An overlay of CAMHB containing a Beta-lactam was added to the compounds at a final static concentration of 4 μg/ml. […] In addition to the titration of test compounds the MICs of a panel of control beta-lactams is also tested to ensure the strains are behaving consistently from test to test. Once the test compound and antibiotics are added the plates can be inoculated according to CLSI broth microdilution method. After inoculation the plates are incubated for 16-20 hours at 37° C. then the Minimal Inhibitory Concentration (MIC) of the test compound is determined visually.
Using the methodology described above in EXAMPLE III, exemplary compounds for Formula I or Formula Ia were evaluated for their ability to inhibit the growth of β-lactamase producing bacteria in the presence of a β-lactam antibiotic.
Representative results are shown in Table 4 where A represents an MIC of the fixed β-lactam antibiotic in the presence of >32 μg/mL of a β-lactamase inhibitor of exemplary compounds, B represents the MIC in the presence of between 8 and 32 μg/mL of a β-lactamase inhibitor of exemplary compounds, and C represents the MIC in the presence of ≦4 μg/mL of a β-lactamase inhibitor of exemplary compounds. NT=Not Tested.

As for `N[C@H](CO)CN[C@H]1CC[C@H](CC(=O)N[C@H]2Cc3cccc(C(=O)O)c3OB2O)CC1` [Example 67, (R)-3-(2-(trans-4-((S)-2-amino-3-hydroxypropylamino)cyclohexyl)acetamido)-2-hydroxy-3,4-dihydro-2H-benzo[e][1,2]oxaborinine-8-carboxylic acid], the IC50 is 100 to 1000 nM at VIM-2; less than 100 nM at OXA-1; less than 100 nM at KPC-2; less than 100 nM at SHV-5; less than 100 nM at p99 AmpC.

With `NCC(=O)N[C@H]1CC[C@H](CC(=O)N[C@H]2Cc3cccc(C(=O)O)c3OB2O)CC1` [Example 68, (R)-3-(2-(trans-4-(2-aminoacetamido)cyclohexyl)acetamido)-2-hydroxy-3,4-dihydro-2H-benzo[e][1,2]oxaborinine-8-carboxylic acid], the IC50 at VIM-2 is 100 to 1000 nM; at OXA-1 it was less than 100 nM; on KPC-2 it was less than 100 nM; against SHV-5, less than 100 nM; at p99 AmpC, less than 100 nM.

As to `O=C(C[C@H]1CC[C@H](N(Cc2ncc[nH]2)Cc2ncc[nH]2)CC1)N[C@H]1Cc2cccc(C(=O)O)c2OB1O` [Example 69, (R)-3-(2-(trans-4-(bis((1H-imidazol-2-yl)methyl)amino)cyclohexyl)acetamido)-2-hydroxy-3,4-dihydro-2H-benzo[e][1,2]oxaborinine-8-carboxylic acid], the IC50 on VIM-2, on OXA-1, on KPC-2, against SHV-5 and against p99 AmpC was less than 100 nM in each case.

For the compound `O=C(C[C@H]1CC[C@H](NCc2cnc[nH]2)CC1)N[C@H]1Cc2cccc(C(=O)O)c2OB1O` [Example 70, (R)-3-(2-(trans-4-((1H-imidazol-5-yl)methylamino)cyclohexyl)acetamido)-2-hydroxy-3,4-dihydro-2H-benzo[e][1,2]oxaborinine-8-carboxylic acid], the IC50 at VIM-2 was 100 to 1000 nM; at OXA-1 it was less than 100 nM; at KPC-2, less than 100 nM; against SHV-5, less than 100 nM; against p99 AmpC, less than 100 nM.

On to `CC(C)NCCN[C@H]1CC[C@H](CC(=O)N[C@H]2Cc3cccc(C(=O)O)c3OB2O)CC1` [Example 71, (R)-2-hydroxy-3-(2-(trans-4-(2-(isopropylamino)ethylamino)cyclohexyl)acetamido)-3,4-dihydro-2H-benzo[e][1,2]oxaborinine-8-carboxylic acid], for which the IC50 on VIM-2, on OXA-1, at KPC-2, against SHV-5 and against p99 AmpC was less than 100 nM each time.

In the case of `O=C(C[C@H]1CC[C@H](NCCNc2ncccn2)CC1)N[C@H]1Cc2cccc(C(=O)O)c2OB1O` [Example 72], the IC50 at VIM-2 is 100 to 1000 nM; at OXA-1, less than 100 nM; on KPC-2 it was less than 100 nM; on SHV-5, less than 100 nM; against p99 AmpC, less than 100 nM.

Take `O=C(C[C@H]1CC[C@H](NCCNC2CCCC2)CC1)N[C@H]1Cc2cccc(C(=O)O)c2OB1O` [Example 73, (R)-3-(2-(trans-4-(2-(cyclopentylamino)ethylamino)cyclohexyl)acetamido)-2-hydroxy-3,4-dihydro-2H-benzo[e][1,2]oxaborinine-8-carboxylic acid]: the IC50 on VIM-2, at OXA-1, on KPC-2, at SHV-5 and at p99 AmpC was less than 100 nM in each case.

With `O=C(C[C@H]1CC[C@H](NCCNCC2CC2)CC1)N[C@H]1Cc2cccc(C(=O)O)c2OB1O` [Example 74, (R)-3-(2-(trans-4-(2-(cyclopropylmethylamino)ethylamino)cyclohexyl)acetamido)-2-hydroxy-3,4-dihydro-2H-benzo[e][1,2]oxaborinine-8-carboxylic acid], the IC50 on VIM-2, at OXA-1, at KPC-2, at SHV-5 and on p99 AmpC was less than 100 nM each time.

Take `O=C(C[C@H]1CC[C@H](NCCN(CC2CC2)CC2CC2)CC1)N[C@H]1Cc2cccc(C(=O)O)c2OB1O` [Example 75, (R)-3-(2-(trans-4-(2-(bis(cyclopropylmethyl)amino)ethylamino)cyclohexyl)acetamido)-2-hydroxy-3,4-dihydro-2H-benzo[e][1,2]oxaborinine-8-carboxylic acid]: the 50% inhibitory concentration (IC50) at VIM-2, on OXA-1, at KPC-2, against SHV-5 and on p99 AmpC was less than 100 nM throughout.

For the compound `NCCC(N)[C@H]1CC[C@H](CC(=O)N[C@H]2Cc3cccc(C(=O)O)c3OB2O)CC1` (stereo partly drawn) [Example 76, (R)-3-(2-(trans-4-(1,3-diaminopropyl)cyclohexyl)acetamido)-2-hydroxy-3,4-dihydro-2H-benzo[e][1,2]oxaborinine-8-carboxylic acid], the IC50 on VIM-2, on OXA-1, on KPC-2, at SHV-5 and against p99 AmpC was less than 100 nM throughout.

Regarding `NCC(N)[C@H]1CC[C@H](CC(=O)N[C@H]2Cc3cccc(C(=O)O)c3OB2O)CC1` (stereo partly drawn) [Example 77, (R)-3-(2-(trans-4-(1,2-diaminoethyl)cyclohexyl)acetamido)-2-hydroxy-3,4-dihydro-2H-benzo[e][1,2]oxaborinine-8-carboxylic acid], the IC50 on VIM-2 was 100 to 1000 nM; at OXA-1 it was less than 100 nM; at KPC-2, 100 to 1000 nM; on SHV-5, less than 100 nM; at p99 AmpC, less than 100 nM.

For `CCNCCN[C@H]1CC[C@H](CC(=O)N[C@H]2Cc3cccc(C(=O)O)c3OB2O)CC1` [Example 78, (R)-3-(2-(trans-4-(2-(ethylamino)ethylamino)cyclohexyl)acetamido)-2-hydroxy-3,4-dihydro-2H-benzo[e][1,2]oxaborinine-8-carboxylic acid], the IC50 at VIM-2, on OXA-1, at KPC-2, on SHV-5 and at p99 AmpC was less than 100 nM throughout.

As for `CN(C)CCN[C@H]1CC[C@H](CC(=O)N[C@H]2Cc3cccc(C(=O)O)c3OB2O)CC1` [Example 79, (R)-3-(2-(trans-4-(2-(dimethylamino)ethylamino)cyclohexyl)acetamido)-2-hydroxy-3,4-dihydro-2H-benzo[e][1,2]oxaborinine-8-carboxylic acid], the IC50 on VIM-2, on OXA-1, on KPC-2, against SHV-5 and at p99 AmpC was less than 100 nM each time.

Turning to `C[C@@H](O)[C@H]1C(=O)N2C(C(=O)O)=C(S[C@@H]3CN[C@H](C(=O)N(C)C)C3)[C@H](C)[C@H]12` [Meropenem, reference compound], the MIC in the test with P. aerug. Ps296 VIM-2 came to 16 µg/mL.

(Values after patent US8912169B2, “Beta-lactamase inhibitors” (VenatoRx Pharmaceuticals, Inc., priority 2012, dated 2014).)
